Experiment: wn = mass fraction of the nth substance listed
Conditions: for surface tension liquid-gas: Maximal bubble pressure; for mass density: 100 kPa, Liquid, Vibrating tube method

CC(=O)[O-].CCn1cc[n+](CCOC)c1 [1-ethyl-3-(2-methoxyethyl)imidazolium acetate] + O
Conditions | mass density, w2 = 0.00822 [kg/m3] | mass density, w2 = 0.00966 [kg/m3] | mass density, w2 = 0.01112 [kg/m3] | mass density, w2 = 0.01254 [kg/m3] | mass density, w2 = 0.01399 [kg/m3] | surface tension liquid-gas, w2 = 0.00188 [mN/m] | surface tension liquid-gas, w2 = 0.0034 [mN/m] | surface tension liquid-gas, w2 = 0.00488 [mN/m] | surface tension liquid-gas, w2 = 0.00638 [mN/m] | surface tension liquid-gas, w2 = 0.00792 [mN/m]
298.15 K | 1193.01 | 1193.1 | 1193.21 | 1193.32 | 1193.44 | 46.3 | 46.5 | 46.7 | 47 | 47.3
303.15 K | 1189.68 | 1189.78 | 1189.89 | 1189.98 | 1190.11 | 46 | 46.2 | 46.4 | 46.7 | 47
308.15 K | 1186.36 | 1186.45 | 1186.56 | 1186.66 | 1186.79 | 45.7 | 45.9 | 46.2 | 46.4 | 46.7
313.15 K | 1183.05 | 1183.14 | 1183.25 | 1183.35 | 1183.48 | 45.4 | 45.7 | 45.9 | 46.1 | 46.4
318.15 K | 1179.76 | 1179.85 | 1179.96 | 1180.06 | 1180.19 | 45.1 | 45.3 | 45.6 | 45.8 | 46.1
323.15 K | 1176.48 | 1176.57 | 1176.68 | 1176.78 | 1176.91 | 44.8 | 45.1 | 45.3 | 45.5 | 45.8
328.15 K | 1173.21 | 1173.31 | 1173.42 | 1173.52 | 1173.65 | 44.6 | 44.9 | 45.1 | 45.3 | 45.6
333.15 K | 1169.97 | 1170.06 | 1170.17 | 1170.27 | 1170.4 | 44.4 | 44.7 | 44.8 | 45.1 | 45.3
338.15 K | 1166.74 | 1166.82 | 1166.93 | 1167.03 | 1167.16 | 44.2 | 44.5 | 44.6 | 44.9 | 45.1

CCn1cc[n+](CCOC)c1.O=S(=O)([O-])C(F)(F)F + O
Conditions | mass density, w2 = 0.00185 [kg/m3] | mass density, w2 = 0.0038 [kg/m3] | mass density, w2 = 0.00537 [kg/m3] | mass density, w2 = 0.00665 [kg/m3] | mass density, w2 = 0.00891 [kg/m3] | surface tension liquid-gas, w2 = 0.0016 [mN/m] | surface tension liquid-gas, w2 = 0.00284 [mN/m] | surface tension liquid-gas, w2 = 0.00419 [mN/m] | surface tension liquid-gas, w2 = 0.0056 [mN/m] | surface tension liquid-gas, w2 = 0.007 [mN/m]
298.15 K | 1355.32 | 1354.72 | 1354.29 | 1353.79 | 1353.19 | 38.2 | 38.4 | 38.6 | 38.8 | 39
303.15 K | 1351.04 | 1350.44 | 1350 | 1349.52 | 1348.89 | 37.9 | 38.1 | 38.3 | 38.4 | 38.6
308.15 K | 1346.78 | 1346.18 | 1345.72 | 1345.26 | 1344.62 | 37.6 | 37.8 | 37.9 | 38.1 | 38.3
313.15 K | 1342.54 | 1341.93 | 1341.46 | 1341.03 | 1340.36 | 37.3 | 37.5 | 37.7 | 37.9 | 38.1
318.15 K | 1338.31 | 1337.7 | 1337.22 | 1336.82 | 1336.12 | 37.1 | 37.3 | 37.5 | 37.7 | 37.9
323.15 K | 1334.1 | 1333.49 | 1333 | 1332.62 | 1331.9 | 36.8 | 37 | 37.2 | 37.5 | 37.7
328.15 K | 1329.9 | 1329.3 | 1328.79 | 1328.44 | 1327.7 | 36.5 | 36.7 | 36.9 | 37.1 | 37.3
333.15 K | 1325.72 | 1325.11 | 1324.6 | 1324.26 | 1323.51 | 36.3 | 36.5 | 36.7 | 36.9 | 37.1
338.15 K | 1321.54 | 1320.94 | 1320.43 | 1320.1 | 1319.34 | 36 | 36.2 | 36.3 | 36.5 | 36.7

CCn1cc[n+](CCOC)c1.N#C[S-] [1-ethyl-3-(2-methoxyethyl)imidazolium thiocyanate] + O
Conditions | mass density, w2 = 0.00246 [kg/m3] | mass density, w2 = 0.00426 [kg/m3] | mass density, w2 = 0.00608 [kg/m3] | mass density, w2 = 0.00832 [kg/m3] | mass density, w2 = 0.00975 [kg/m3] | surface tension liquid-gas, w2 = 0.00382 [mN/m] | surface tension liquid-gas, w2 = 0.00528 [mN/m] | surface tension liquid-gas, w2 = 0.00668 [mN/m] | surface tension liquid-gas, w2 = 0.00811 [mN/m] | surface tension liquid-gas, w2 = 0.00956 [mN/m]
298.15 K | 1121.78 | 1121.54 | 1121.29 | 1120.96 | 1120.82 | 49.3 | 49.4 | 49.5 | 49.6 | 49.7
303.15 K | 1118.56 | 1118.32 | 1118.08 | 1117.75 | 1117.6 | 49 | 49.1 | 49.2 | 49.3 | 49.4
308.15 K | 1115.36 | 1115.12 | 1114.88 | 1114.54 | 1114.4 | 48.7 | 48.8 | 48.9 | 49 | 49.1
313.15 K | 1112.18 | 1111.94 | 1111.7 | 1111.35 | 1111.21 | 48.4 | 48.5 | 48.6 | 48.8 | 48.9
318.15 K | 1109.03 | 1108.77 | 1108.54 | 1108.18 | 1108.03 | 48.1 | 48.2 | 48.3 | 48.5 | 48.6
323.15 K | 1105.88 | 1105.63 | 1105.39 | 1105.02 | 1104.87 | 47.8 | 47.9 | 48 | 48.1 | 48.2
328.15 K | 1102.76 | 1102.5 | 1102.25 | 1101.87 | 1101.72 | 47.6 | 47.7 | 47.8 | 47.9 | 48
333.15 K | 1099.65 | 1099.38 | 1099.13 | 1098.74 | 1098.59 | 47.4 | 47.5 | 47.6 | 47.7 | 47.8
338.15 K | 1096.55 | 1096.28 | 1096.02 | 1095.62 | 1095.47 | 47.1 | 47.2 | 47.3 | 47.5 | 47.6

CCn1cc[n+](CCOC)c1.N#C[N-]C#N [1-ethyl-3-(2-methoxyethyl)imidazolium dicyanamide] + O
Conditions | mass density, w2 = 0.00148 [kg/m3] | mass density, w2 = 0.00277 [kg/m3] | mass density, w2 = 0.00434 [kg/m3] | mass density, w2 = 0.0055 [kg/m3] | mass density, w2 = 0.00719 [kg/m3] | surface tension liquid-gas, w2 = 0.00031 [mN/m] | surface tension liquid-gas, w2 = 0.00175 [mN/m] | surface tension liquid-gas, w2 = 0.00317 [mN/m] | surface tension liquid-gas, w2 = 0.00461 [mN/m] | surface tension liquid-gas, w2 = 0.00609 [mN/m]
298.15 K | 1113.35 | 1113.18 | 1112.96 | 1112.77 | 1112.46 | 44.7 | 44.9 | 45.3 | 45.6 | 45.9
303.15 K | 1109.96 | 1109.78 | 1109.57 | 1109.37 | 1109.06 | 44.4 | 44.7 | 45 | 45.3 | 45.6
308.15 K | 1106.58 | 1106.41 | 1106.19 | 1106 | 1105.69 | 44.1 | 44.4 | 44.7 | 45 | 45.3
313.15 K | 1103.23 | 1103.05 | 1102.83 | 1102.64 | 1102.33 | 43.8 | 44.1 | 44.4 | 44.7 | 45
318.15 K | 1099.89 | 1099.72 | 1099.5 | 1099.3 | 1098.99 | 43.5 | 43.8 | 44.1 | 44.4 | 44.7
323.15 K | 1096.58 | 1096.4 | 1096.18 | 1095.98 | 1095.66 | 43.2 | 43.5 | 43.8 | 44.2 | 44.4
328.15 K | 1093.27 | 1093.1 | 1092.88 | 1092.68 | 1092.36 | 43 | 43.3 | 43.6 | 44 | 44.2
333.15 K | 1090 | 1089.82 | 1089.59 | 1089.4 | 1089.08 | 42.7 | 43.1 | 43.4 | 43.7 | 44
338.15 K | 1086.74 | 1086.56 | 1086.33 | 1086.13 | 1085.81 | 42.4 | 42.8 | 43.1 | 43.4 | 43.7
